Data published in patent US8901118B2, “Compounds and methods for kinase modulation, and indications therefor” (Plexxikon Inc., priority 2010, dated 2014).

Tests used:
[1] = Relative solubility by turbidity in aqueous buffers (pH 1.5, 4.5, 6.8, 7.4); format: physicochemical; settings: for turbidity threshold (L, M, H) 1.4: pH 1.5 (SGF); for turbidity threshold (L, M, H) 4.5: pH 4.5 (SIF); for turbidity threshold (L, M, H) 6.8: pH 6.8 (SIF); for turbidity threshold (L, M, H) 7.4: pH 7.4 (HEPES)
Outline: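 Twofold DMSO dilutions of a 25 mM stock were spiked into SGF (0.5M NaCl, pH 1.5), SIF (0.05M NaH2PO4, pH 4.5 and 6.8) or HEPES buffer (10 mM HEPES, 150 mM NaCl, pH 7.4). Absorbance was read at 490, 535 and 650 nm. The endpoint is the concentration crossing O.D. 0.01, averaged across wavelengths.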

CYP3A4(BFC) = CYP3A4(BFC) (Homo sapiens, UniProt P08684); experiment: CYP3A4(BFC) inhibition; format: in vitro ADME; settings: CYP3A4, substrate BFC; read-out: Cyp IC50 3A4(BFC)
CYP3A4(BFC), sequence (P08684 whole entry): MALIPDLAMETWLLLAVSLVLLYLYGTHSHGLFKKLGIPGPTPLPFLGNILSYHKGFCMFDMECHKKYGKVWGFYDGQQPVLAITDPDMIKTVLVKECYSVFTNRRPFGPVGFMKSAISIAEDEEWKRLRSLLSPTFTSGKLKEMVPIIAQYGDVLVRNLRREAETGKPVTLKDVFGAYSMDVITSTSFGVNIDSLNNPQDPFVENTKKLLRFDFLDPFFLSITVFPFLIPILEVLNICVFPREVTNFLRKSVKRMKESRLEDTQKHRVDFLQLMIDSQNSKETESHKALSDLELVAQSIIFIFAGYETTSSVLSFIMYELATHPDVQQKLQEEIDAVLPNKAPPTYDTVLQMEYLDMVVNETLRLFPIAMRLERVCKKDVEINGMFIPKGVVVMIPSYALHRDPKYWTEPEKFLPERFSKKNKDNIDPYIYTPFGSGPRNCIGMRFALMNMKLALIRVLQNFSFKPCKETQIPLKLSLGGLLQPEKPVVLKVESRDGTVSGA
Outline: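 Inhibition of human CYP3A4 with the BFC substrate was measured by fluorescence loss of the metabolized product. Compounds at 100 mM in DMSO were diluted 1 μL into 82 μL acetonitrile, then 11 μL into 204 μL cofactor mix with NADPH regeneration solutions, and serially diluted 1:1 to 10 points. Plates were incubated 30 min at 37° C and read at 409 ex/460 em to obtain IC50.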

CYP1A2 = target: T1, CYP1A2 (Homo sapiens, UniProt P05177); experiment: CYP1A2 inhibition (fluorescent substrate CEC); format: in vitro ADME; settings: read-out: Cyp IC50 1A2
T1 sequence (P05177 1-516): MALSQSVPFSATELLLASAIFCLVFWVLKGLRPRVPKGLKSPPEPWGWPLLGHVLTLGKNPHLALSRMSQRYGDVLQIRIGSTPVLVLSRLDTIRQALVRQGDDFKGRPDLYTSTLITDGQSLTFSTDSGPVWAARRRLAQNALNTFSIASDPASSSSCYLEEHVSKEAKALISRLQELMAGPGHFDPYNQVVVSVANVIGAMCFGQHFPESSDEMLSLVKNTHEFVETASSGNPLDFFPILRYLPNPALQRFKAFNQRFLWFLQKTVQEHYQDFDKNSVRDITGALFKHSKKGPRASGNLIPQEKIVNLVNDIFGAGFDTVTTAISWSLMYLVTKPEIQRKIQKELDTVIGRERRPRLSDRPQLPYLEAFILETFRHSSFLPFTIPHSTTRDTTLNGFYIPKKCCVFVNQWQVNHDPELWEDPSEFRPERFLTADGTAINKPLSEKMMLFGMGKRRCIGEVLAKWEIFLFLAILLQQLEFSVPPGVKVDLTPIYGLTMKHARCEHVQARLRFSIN
Outline: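 Inhibition is measured as the drop in fluorescent metabolite formation across a 10-point compound titration with NADPH regeneration at 37 °C. Incubation lasts 15 min for CYP1A2, 45 min for CYP2C9 and 30 min for CYP2C19 and CYP2D6.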

IC50 (CYP3A4(BFC)) [µM]	IC50 (CYP1A2) [µM]	Structure (SMILES)	turbidity threshold (L, M, H) 1.4 [1]	turbidity threshold (L, M, H) 4.5 [1]	turbidity threshold (L, M, H) 6.8 [1]	turbidity threshold (L, M, H) 7.4 [1]
> 10	< 5	CNc1ncnc2[nH]cc(C(=O)c3ccc(Nc4ccc(C(F)(F)F)nc4)nc3F)c12 [Compound P-4092, [2-fluoro-6-[[6-(trifluoromethyl)-3-pyridyl]amino]-3-pyridyl]-[4-(methylamino)-7H-pyrrolo[2,3-d]pyrimidin-5-yl]methanone]	M (moderate solubility if the threshold concentration is 31.3 μM to 250 μM)	M (moderate solubility if the threshold concentration is 31.3 μM to 250 μM)	M (moderate solubility if the threshold concentration is 31.3 μM to 250 μM)	M (moderate solubility if the threshold concentration is 31.3 μM to 250 μM)
> 10	> 10	O=C(c1ccc(Nc2ccc(C3CC3)nc2)nc1F)c1c[nH]c2ncnc(NC3CC3)c12 [Compound P-4093, [4-(cyclopropylamino)-7H-pyrrolo[2,3-d]pyrimidin-5-yl]-[6-[(6-cyclopropyl-3-pyridyl)amino]-2-fluoro-3-pyridyl]methanone]	H (high solubility if the threshold concentration is >250 μm)	L (low solubility if the threshold concentration is <31.3 μM)	L (low solubility if the threshold concentration is <31.3 μM)	L (low solubility if the threshold concentration is <31.3 μM)
> 10	< 5	CNc1ncnc2[nH]cc(C(=O)c3ccc(Nc4ccc(C5CC5)nc4)nc3F)c12 [Compound P-4094, [6-[(6-cyclopropyl-3-pyridyl)amino]-2-fluoro-3-pyridyl]-[4-(methylamino)-7H-pyrrolo[2,3-d]pyrimidin-5-yl]methanone]	H (high solubility if the threshold concentration is >250 μm)	L (low solubility if the threshold concentration is <31.3 μM)	M (moderate solubility if the threshold concentration is 31.3 μM to 250 μM)	M (moderate solubility if the threshold concentration is 31.3 μM to 250 μM)
> 10	> 10	CCc1ccc(Nc2ccc(C(=O)c3c[nH]c4ncnc(NC5CCC5)c34)c(F)n2)cn1 [Compound P-4095, [4-(cyclobutylamino)-7H-pyrrolo[2,3-d]pyrimidin-5-yl]-[6-[(6-ethyl-3-pyridyl)amino]-2-fluoro-3-pyridyl]methanone]	M (moderate solubility if the threshold concentration is 31.3 μM to 250 μM)	M (moderate solubility if the threshold concentration is 31.3 μM to 250 μM)	M (moderate solubility if the threshold concentration is 31.3 μM to 250 μM)	M (moderate solubility if the threshold concentration is 31.3 μM to 250 μM)
> 10	< 5	CCc1ccc(Nc2ccc(C(=O)c3c[nH]c4ncnc(NC5CCC(F)(F)CC5)c34)c(F)n2)cn1 [Compound P-4096, [4-[(4,4-difluorocyclohexyl)amino]-7H-pyrrolo[2,3-d]pyrimidin-5-yl]-[6-[(6-ethyl-3-pyridyl)amino]-2-fluoro-3-pyridyl]methanone]	H (high solubility if the threshold concentration is >250 μm)	L (low solubility if the threshold concentration is <31.3 μM)	L (low solubility if the threshold concentration is <31.3 μM)	L (low solubility if the threshold concentration is <31.3 μM)
